The values below come from US12637430B2, “Interleukin-17 (IL-17) inhibitors” (priority 2020, dated 2026).

One assay addresses T1, human IL-17A protein (Homo sapiens, UniProt Q16552).
T1 construct: purchased R&D 317-ILB
T1 sequence (Q16552 20-155 limits assumed): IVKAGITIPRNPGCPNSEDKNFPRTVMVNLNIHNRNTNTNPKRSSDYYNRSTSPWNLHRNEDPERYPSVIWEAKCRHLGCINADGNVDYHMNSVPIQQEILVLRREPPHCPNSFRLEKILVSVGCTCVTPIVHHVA
As to the kind of experiment: Inhibition of chemokine GROα/CXCL1 generation induced by human IL-17A protein in HT-29 cell. Type of assay: cell-based. On the procedure: HT-29 (Zhongyuan Gongchuang Technology Co., Ltd. of Chengdu, Sichuan) was added to a 96-well plate at 5×10^4 cells/well, and cultured overnight in a incubator at 37° C. A mixture of 30 ng/mL of human IL-17A protein (R&D, #317-ILB) and IL-17A small molecule inhibitors with gradient concentrations or 0.3 μg/mL of positive control IL-17A antibody (R&D, #AF-317-NA) was incubated at 37° C. for 1 h, and then added to the above-mentioned 96-well plate, and incubated with HT-29 cells at 37° C. for 48 hours. Then the GROα level in the cell culture supernatant was detected by an ELISA kit (Cisbio, #62HCXC1PEG) of the GROα.
According to the methods described in Experimental Examples 1 and 2, the compounds prepared in the above-mentioned examples were subjected to the experiment on inhibition of chemokine GROα/CXCL1 generation induced by human IL-17A protein in HT-29 cell.

In the next assay the target is T2, human IL-17A (Homo sapiens, UniProt Q16552).
T2 construct: purchased Sino Biological Inc. 12047-H07B
T2 sequence (Q16552 24-155): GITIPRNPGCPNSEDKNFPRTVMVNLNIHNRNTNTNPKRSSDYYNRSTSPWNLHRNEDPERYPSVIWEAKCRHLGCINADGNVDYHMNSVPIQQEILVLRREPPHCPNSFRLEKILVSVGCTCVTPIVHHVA
Nature of the assay: IL-17A enzyme-linked immunosorbent assay (competitive ELISA, IL-17A/IL-17R binding). On the procedure: The inhibition of receptor-ligand binding by human IL-17A inhibitors was quantified by competitive ELISA. 0.2 μg/mL of IL-17A (Sino Biological Inc. Cat #12047-H07B) was added in a 96-well plate at 100 μl per well for incubation for 30 min under 37° C. The 96-well plate was washed with PBST (PBS, 0.05% Tween-20) at 200 μl per well for 4 times, and then added with 200 μl of 5% skim milk and placed on a shaker for incubation at 25° C. for 30 min. The compound to be tested was prepared at 100× concentration ranging from 0.003 μM to 30 μM. After washed with PBST (PBS, 0.05% Tween-20) 4 times, the plate was added with 89 μl of PBST and 1 μl of the compound to be tested at 100× concentration followed by uniformly mixing and pre-incubation at 25° C. for 10 min. Then the plate was added with 10 μl of 16 nM IL-17R, and incubated on a shaker at 25° C. for 30 min. After washed for 4 times, the plate was added with 100 μl of anti-Fc-tag horseradish peroxidase (HRP)-conjugated antibody, and incubated on a shaker at 25° C. for 30 min. After washed 4 times, the plate was added with 100 μl of 3,3′, 5,5″-tetramethylbenzidine (TMB) substrate solution, and incubated at 25° C. in the dark. Then the plate was added with 20% HCl, followed by detection of the light absorption value at a wavelength of 450 nm by a microplate reader. The compounds prepared in the above examples were tested for human IL-17A inhibitory activity according to the above method.
For orientation: ELISA stands for enzyme-linked immunosorbent assay.

With `Cn1nccc1C(=O)N[C@H](C(=O)Nc1ccc(C2CCOCC2)cc1)C(C1CCC1)C1(C)CC1` (some centres unmarked) [Compound 2], the IC50 (commonly the concentration that inhibits the measured activity by half) came out at 555 nM against human IL-17A protein and 66 nM at human IL-17A.

For `Cn1nccc1C(=O)N[C@H](C(=O)Nc1ccc(C2CCOCC2)cn1)C(C1CCC1)C1(C)CC1` (some centres unmarked) [Compound 3], the IC50 at human IL-17A protein is 1570 nM; at human IL-17A, 67 nM.

Turning to `Cn1nccc1C(=O)N[C@H](C(=O)Nc1cnc(C2CCOCC2)c(F)c1)C(C1CCC1)C1(C)CC1` (some centres unmarked) [Compound 4], the IC50 against human IL-17A protein turned out to be 598 nM; at human IL-17A it was 64 nM.

`Cn1nccc1C(=O)N[C@H](C(=O)Nc1ccc(N2CCOCC2)nc1)C(C1CCC1)C1(C)CC1` (some centres unmarked) [Compound 8] had an IC50 on human IL-17A of 236 nM.

Take `C[C@@H]1COCCN1c1ccc(NC(=O)[C@@H](NC(=O)c2ccnn2C)C(C2CCC2)C2(C)CC2)cn1` (some centres unmarked) [Compound 10]: the IC50 is 7400 nM against human IL-17A protein and 41 nM at human IL-17A.

On to `C[C@H]1COCCN1c1ccc(NC(=O)[C@@H](NC(=O)c2ccnn2C)C(C2CCC2)C2(C)CC2)cn1` (some centres unmarked) [Compound 11], for which the IC50 came to 10800 nM against human IL-17A protein and 56 nM at human IL-17A.

With `CC(C)[C@H]1COCCN1c1ccc(NC(=O)[C@@H](NC(=O)c2ccnn2C)C(C2CCC2)C2(C)CC2)cn1` (some centres unmarked) [Compound 12], the IC50 against human IL-17A protein came to 13600 nM; on human IL-17A, 40 nM.

As to `CC(C)[C@@H]1COCCN1c1ccc(NC(=O)[C@@H](NC(=O)c2ccnn2C)C(C2CCC2)C2(C)CC2)cn1` (some centres unmarked) [Compound 13], the IC50 at human IL-17A was 642 nM.

Regarding `CC[C@H]1COCCN1c1ccc(NC(=O)[C@@H](NC(=O)c2ccnn2C)C(C2CCC2)C2(C)CC2)cn1` (some centres unmarked) [Compound 14], the IC50 on human IL-17A protein is 7270 nM; at human IL-17A, 21 nM.

In the case of `CC[C@@H]1COCCN1c1ccc(NC(=O)[C@@H](NC(=O)c2ccnn2C)C(C2CCC2)C2(C)CC2)cn1` (some centres unmarked) [Compound 15], the IC50 was 2820 nM against human IL-17A protein and 49 nM on human IL-17A.

In the case of `C[C@@H]1CN(c2ccc(NC(=O)[C@@H](NC(=O)c3ccnn3C)C(C3CCC3)C3(C)CC3)cn2)CCO1` (some centres unmarked) [Compound 16], the IC50 was found to be 11700 nM on human IL-17A protein and 100 nM on human IL-17A.

`Cn1nccc1C(=O)N[C@H](C(=O)Nc1ccc(N2CCOCC2C2CC2)nc1)C(C1CCC1)C1(C)CC1` (some centres unmarked) [Compound 17] returned an IC50 on human IL-17A of 136 nM.

Compound `Cn1nccc1C(=O)N[C@H](C(=O)Nc1ccc(N2CCOC[C@H]2CO)nc1)C(C1CCC1)C1(C)CC1` (some centres unmarked) [Compound 18] showed an IC50 on human IL-17A of 247 nM.

In the case of `Cn1nccc1C(=O)N[C@H](C(=O)Nc1cnc(N2CCOCC2)c(F)c1)C(C1CCC1)C1(C)CC1` (some centres unmarked) [Compound 19], the IC50 against human IL-17A protein was 3160 nM; on human IL-17A it was 73 nM.

For the compound `CC1CN(C)CCN1c1ccc(NC(=O)[C@@H](NC(=O)c2ccnn2C)C(C2CCC2)C2(C)CC2)cn1` (some centres unmarked) [Compound 20], the IC50 on human IL-17A worked out at 9340 nM.

Compound `CCN1CCN(c2ccc(NC(=O)[C@@H](NC(=O)c3ccnn3C)C(C3CCC3)C3(C)CC3)cn2)[C@H](C)C1` (some centres unmarked) [Compound 21] displayed an IC50 at human IL-17A of 16900 nM.

Turning to `CC(C)N1CCN(c2ccc(NC(=O)[C@@H](NC(=O)c3ccnn3C)C(C3CCC3)C3(C)CC3)cn2)C(C)C1` (some centres unmarked) [Compound 22], the IC50 at human IL-17A is 13700 nM.

For `Cn1nccc1C(=O)N[C@H](C(=O)Nc1ccc2c(c1)NC(=O)C21CCOCC1)C(C1CCC1)C1(C)CC1` (some centres unmarked) [Compound 23], the IC50 on human IL-17A protein was 65 nM; on human IL-17A, 43 nM.

The compound `C[C@@H]1CN(c2ccc(NC(=O)[C@@H](NC(=O)c3ccnn3C)C(C3CCC3)C3(C)CC3)cn2)CCN1` (some centres unmarked) [Compound 24] showed an IC50 at human IL-17A above 40000 nM.

Regarding `Cn1nccc1C(=O)N[C@H](C(=O)Nc1ccc2c(c1)NC(=O)C21CCOCC1)[C@H](c1ccccc1)C1(C)CC1` [Compound 25], the IC50 was 420 nM on human IL-17A protein and 32 nM at human IL-17A.

Consider `Cn1nccc1C(=O)N[C@H](C(=O)Nc1ccc2c(c1)NC(=O)C21CCOCC1)[C@H](c1ccccc1Cl)C1(C)CC1` [Compound 26], for which the IC50 against human IL-17A protein came out at 250 nM; on human IL-17A, 96 nM.

For `CN1C(=O)C2(CCOCC2)c2ccc(NC(=O)[C@@H](NC(=O)c3ccnn3C)[C@H](c3ccccc3Cl)C3(C)CC3)cc21` [Compound 27], the IC50 on human IL-17A protein came to 1080 nM; at human IL-17A, 104 nM.

`Cn1nccc1C(=O)N[C@H](C(=O)Nc1ccc(C(C)(C)c2nnc(C3CCC3)o2)cc1)C(C1CCC1)C1(C)CC1` (some centres unmarked) [Compound 36] returned an IC50 on human IL-17A of 1280 nM.

Consider `Cc1n[nH]c(C)c1-c1ccc(NC(=O)[C@@H](NC(=O)c2ccnn2C)C(C2CCC2)C2(C)CC2)cn1` (some centres unmarked) [Compound 37], for which the IC50 at human IL-17A protein was 257 nM; at human IL-17A, 18 nM.

Turning to `Cc1n[nH]c(C)c1-c1ccc(NC(=O)[C@@H](NC(=O)c2ccnn2C)C(C2CC2)C2CC2)cn1` [Compound 38], the 50% inhibitory concentration (IC50) at human IL-17A protein came out at 4460 nM; on human IL-17A, 385 nM.

With `CCn1nccc1C(=O)N[C@H](C(=O)Nc1ccc(-c2c(C)n[nH]c2C)nc1)C(C1CC1)C1CC1` [Compound 39], the IC50 is 514 nM against human IL-17A protein and 128 nM at human IL-17A.

On to `Cc1n[nH]c(C)c1-c1ccc(NC(=O)[C@@H](NC(=O)c2ccnn2C(C)C)C(C2CC2)C2CC2)cn1` [Compound 40], for which the IC50 against human IL-17A protein was 781 nM; on human IL-17A, 117 nM.

Regarding `Cc1nonc1C(=O)N[C@H](C(=O)Nc1ccc(-c2c(C)n[nH]c2C)nc1)C(C1CC1)C1CC1` [Compound 41], the IC50 against human IL-17A protein came to 1470 nM; at human IL-17A it was 1140 nM.

Regarding `CCc1nocc1C(=O)N[C@H](C(=O)Nc1ccc(-c2c(C)n[nH]c2C)nc1)C(C1CC1)C1CC1` [Compound 42], the IC50 at human IL-17A amounted to 170 nM.

As for `CCc1nonc1C(=O)N[C@H](C(=O)Nc1ccc(-c2c(C)n[nH]c2C)nc1)C(C1CC1)C1CC1` [Compound 43], the IC50 on human IL-17A stood at 457 nM.

`Cc1conc1C(=O)N[C@H](C(=O)Nc1ccc(-c2c(C)n[nH]c2C)nc1)C(C1CC1)C1CC1` [Compound 44]: the concentration for half-maximal inhibition (IC50) at human IL-17A came out at 2780 nM.

For `Cc1n[nH]c(C)c1-c1ccc(NC(=O)[C@@H](NC(=O)c2nocc2C(C)C)C(C2CC2)C2CC2)cn1` [Compound 45], the IC50 on human IL-17A was 511 nM.

Consider `Cc1nocc1C(=O)N[C@H](C(=O)Nc1ccc(-c2c(C)n[nH]c2C)nc1)C(C1CC1)C1CC1` [Compound 46], for which the IC50 is 856 nM on human IL-17A protein and 111 nM at human IL-17A.

The compound `Cc1n[nH]c(C)c1-c1ccc(NC(=O)[C@@H](NC(=O)c2ncnn2C)C(C2CC2)C2CC2)cn1` [Compound 47] had an IC50 at human IL-17A of 15500 nM.

As to `Cc1n[nH]c(C)c1-c1ccc(NC(=O)[C@@H](NC(=O)c2nonc2C(C)C)C(C2CC2)C2CC2)cn1` [Compound 48], the IC50 was 3030 nM on human IL-17A protein and 157 nM at human IL-17A.

In the case of `Cc1n[nH]c(C)c1-c1ccc(NC(=O)[C@@H](NC(=O)c2ccn(C3CC3)n2)C(C2CC2)C2CC2)cn1` [Compound 49], on human IL-17A, the IC50 was determined as 537 nM.

In turn, `Cc1n[nH]c(C)c1-c1ccc(NC(=O)[C@@H](NC(=O)c2ccnn2C2CC2)C(C2CC2)C2CC2)cn1` [Compound 50] displayed an IC50 at human IL-17A of 27900 nM.

With `CCn1nccc1C(=O)N[C@H](C(=O)Nc1cnc(-c2c(C)n[nH]c2C)c(F)c1)C(C1CC1)C1CC1` [Compound 52], the IC50 against human IL-17A protein came out at 321 nM; at human IL-17A, 98 nM.

As for `Cc1n[nH]c(C)c1-c1ccc(NC(=O)[C@@H](NC(=O)c2ccnn2C)C(C2CC2)C2(C)CC2)cn1` (some centres unmarked) [Compound 53], the IC50 was determined as 472 nM against human IL-17A protein and 55 nM at human IL-17A.

Take `CCn1nccc1C(=O)N[C@H](C(=O)Nc1ccc(-c2c(C)n[nH]c2C)nc1)C(C1CC1)C1(C)CC1` (some centres unmarked) [Compound 54]: the IC50 on human IL-17A protein came out at 238 nM; at human IL-17A it was 47 nM.

As to `Cc1nonc1C(=O)N[C@H](C(=O)Nc1ccc(-c2c(C)n[nH]c2C)nc1)C(C1CC1)C1(C)CC1` (some centres unmarked) [Compound 55], the IC50 at human IL-17A protein is 866 nM; at human IL-17A, 53 nM.

Take `Cc1n[nH]c(C)c1-c1ccc(NC(=O)[C@@H](NC(=O)c2ccnn2C(C)C)C(C2CC2)C2(C)CC2)cn1` (some centres unmarked) [Compound 56]: the IC50 at human IL-17A protein came out at 87 nM; on human IL-17A, 35 nM.
